{"source": "ChEMBL document CHEMBL4715821", "about": "“Discovery of 4-ethoxy-7H-pyrrolo[2,3-d]pyrimidin-2-amines as potent, selective and orally bioavailable LRRK2 inhibitors” (Bioorg Med Chem Lett, 2018)", "key": {"[1]": {"molecular_target": "Mitogen-activated protein kinase 14 (Homo sapiens) (UniProt Q16539)", "sequence (Q16539 whole entry, the tested form may be a part)": "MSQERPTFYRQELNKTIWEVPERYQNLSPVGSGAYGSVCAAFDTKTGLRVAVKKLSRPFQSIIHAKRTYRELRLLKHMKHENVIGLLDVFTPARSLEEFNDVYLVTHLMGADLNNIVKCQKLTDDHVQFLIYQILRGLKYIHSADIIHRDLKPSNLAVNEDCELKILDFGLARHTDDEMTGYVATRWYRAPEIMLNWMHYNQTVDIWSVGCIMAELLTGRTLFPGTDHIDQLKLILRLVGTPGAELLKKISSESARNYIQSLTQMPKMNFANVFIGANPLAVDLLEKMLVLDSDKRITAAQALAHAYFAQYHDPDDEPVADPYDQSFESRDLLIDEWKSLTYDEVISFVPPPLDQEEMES", "assay": "Inhibition of wild-type human full length p38-alpha (M1 to S360 residues) expressed in bacterial expression system assessed as residual activity at 1 uM by Kinomescan method relative to control"}, "[2]": {"molecular_target": "Tyrosine-protein kinase ABL2 (Homo sapiens) (UniProt P42684)", "assay": "Inhibition of wild-type human ABL2 (A248 to G542 residues) expressed in bacterial expression system assessed as residual activity at 1 uM by Kinomescan method relative to control"}, "[3]": {"molecular_target": "RAC-alpha serine/threonine-protein kinase (Homo sapiens) (UniProt P31749)", "assay": "Inhibition of wild-type human partial length AKT1 expressed in bacterial expression system assessed as residual activity at 1 uM by Kinomescan method relative to control"}, "[4]": {"molecular_target": "Proto-oncogene tyrosine-protein kinase receptor Ret (Homo sapiens) (UniProt P07949)", "sequence (P07949 whole entry, the tested form may be a part)": "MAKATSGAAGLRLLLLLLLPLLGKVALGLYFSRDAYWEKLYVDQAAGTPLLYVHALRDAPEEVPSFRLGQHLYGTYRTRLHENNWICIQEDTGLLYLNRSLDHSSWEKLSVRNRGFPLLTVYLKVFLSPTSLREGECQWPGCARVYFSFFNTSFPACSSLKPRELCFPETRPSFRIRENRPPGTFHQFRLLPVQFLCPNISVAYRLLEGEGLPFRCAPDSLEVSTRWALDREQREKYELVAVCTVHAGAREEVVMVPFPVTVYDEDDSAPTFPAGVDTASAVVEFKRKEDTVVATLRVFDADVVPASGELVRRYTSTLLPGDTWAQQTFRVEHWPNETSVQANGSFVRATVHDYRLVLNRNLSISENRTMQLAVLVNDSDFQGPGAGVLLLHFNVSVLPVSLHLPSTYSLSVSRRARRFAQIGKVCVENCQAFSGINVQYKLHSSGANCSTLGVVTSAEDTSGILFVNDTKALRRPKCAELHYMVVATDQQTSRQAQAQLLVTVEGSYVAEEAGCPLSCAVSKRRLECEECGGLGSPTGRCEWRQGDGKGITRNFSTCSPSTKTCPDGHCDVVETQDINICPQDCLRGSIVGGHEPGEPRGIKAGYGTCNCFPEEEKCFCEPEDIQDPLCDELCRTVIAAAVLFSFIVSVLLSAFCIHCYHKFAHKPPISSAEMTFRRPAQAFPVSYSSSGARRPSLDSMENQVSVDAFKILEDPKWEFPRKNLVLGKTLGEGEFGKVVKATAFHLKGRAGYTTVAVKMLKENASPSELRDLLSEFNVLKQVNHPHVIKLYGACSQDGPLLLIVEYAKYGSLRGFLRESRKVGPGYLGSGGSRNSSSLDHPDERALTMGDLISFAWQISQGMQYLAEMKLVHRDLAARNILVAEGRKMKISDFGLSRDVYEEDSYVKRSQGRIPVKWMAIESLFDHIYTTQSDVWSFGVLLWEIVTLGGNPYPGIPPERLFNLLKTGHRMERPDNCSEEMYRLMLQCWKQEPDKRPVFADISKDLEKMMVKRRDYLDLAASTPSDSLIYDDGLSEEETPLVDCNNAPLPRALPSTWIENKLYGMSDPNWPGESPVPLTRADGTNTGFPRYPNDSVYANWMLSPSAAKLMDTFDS", "assay": "Inhibition of wild-type human partial length RET (E713 to D1014 residues) expressed in bacterial expression system assessed as residual activity at 1 uM by Kinomescan method relative to control"}, "[5]": {"molecular_target": "Platelet-derived growth factor receptor alpha (Homo sapiens) (UniProt P16234)", "assay": "Inhibition of wild-type human partial length PDGFRA (V575 to D1002 residues) expressed in mammalian expression system assessed as residual activity at 1 uM by Kinomescan method relative to control"}, "[6]": {"assay": "Ratio of total drug concentration in brain to blood in Han-Wistar rat at 10 mg/kg, po", "assay_type": "ADME, organism-based"}, "[7]": {"molecular_target": "SRSF protein kinase 2 (Homo sapiens) (UniProt P78362)", "assay": "Inhibition of wild-type human full length SRPK2 (M1 to S686 residues) expressed in bacterial expression system assessed as residual activity at 1 uM by Kinomescan method relative to control"}, "[8]": {"molecular_target": "Aurora kinase C (Homo sapiens) (UniProt Q9UQB9)", "assay": "Inhibition of wild-type human full length AURKC (M1 to S275 residues) expressed in bacterial expression system assessed as residual activity at 1 uM by Kinomescan method relative to control"}, "[9]": {"molecular_target": "Solute carrier organic anion transporter family member 1B1 (Homo sapiens, UniProt Q9Y6L6)", "assay": "Inhibition of human OATP1B1"}, "[10]": {"molecular_target": "Mitogen-activated protein kinase kinase kinase 1 (Homo sapiens) (UniProt Q13233)", "assay": "Inhibition of MEKK1 (unknown origin) assessed as residual activity at 1 uM by Kinomescan method relative to control"}, "[11]": {"molecular_target": "Mitogen-activated protein kinase 8 (Homo sapiens) (UniProt P45983)", "assay": "Inhibition of wild-type human full length JNK1 (M1 to Q384 residues) expressed in mammalian expression system assessed as residual activity at 1 uM by Kinomescan method relative to control"}, "[12]": {"molecular_target": "Serine/threonine-protein kinase BRSK1 (Homo sapiens) (UniProt Q8TDC3)", "assay": "Inhibition of wild-type human partial length BRSK1 (M1 to E754 residues) expressed in bacterial expression system assessed as residual activity at 1 uM by Kinomescan method relative to control"}, "[13]": {"molecular_target": "Ribosomal protein S6 kinase alpha-2 (Homo sapiens) (UniProt Q15349)", "assay": "Inhibition of human RSK3 expressed in bacterial expression system assessed as residual activity at 1 uM by Kinomescan method relative to control"}, "[14]": {"molecular_target": "Protein kinase C gamma type (Homo sapiens) (UniProt P05129)", "assay": "Inhibition of PKCgamma (unknown origin) assessed as residual activity at 1 uM by Kinomescan method relative to control"}, "[15]": {"molecular_target": "Ribosomal protein S6 kinase beta-2 (Homo sapiens) (UniProt Q9UBS0)", "assay": "Inhibition of RPS6KB2 (unknown origin) assessed as residual activity at 1 uM by Kinomescan method relative to control"}, "[16]": {"molecular_target": "Rho-associated protein kinase 2 (Homo sapiens) (UniProt O75116)", "assay": "Inhibition of wild-type human partial length ROCK2 (M1 to T431 residues) expressed in mammalian expression system assessed as residual activity at 1 uM by Kinomescan method relative to control"}, "[17]": {"molecular_target": "Phosphorylase b kinase gamma catalytic chain, skeletal muscle/heart isoform (Homo sapiens) (UniProt Q16816)", "assay": "Inhibition of wild-type human full length PHKG1 (M1 to Y387 residues) expressed in bacterial expression system assessed as residual activity at 1 uM by Kinomescan method relative to control"}, "[18]": {"molecular_target": "Inhibitor of nuclear factor kappa-B kinase subunit beta (Homo sapiens) (UniProt O14920)", "assay": "Inhibition of wild-type human full length IKK-beta (M1 to S756 residues) expressed in mammalian expression system assessed as residual activity at 1 uM by Kinomescan method relative to control"}, "[19]": {"molecular_target": "Serine/threonine-protein kinase Sgk3 (Homo sapiens) (UniProt Q96BR1)", "sequence (Q96BR1 whole entry, the tested form may be a part)": "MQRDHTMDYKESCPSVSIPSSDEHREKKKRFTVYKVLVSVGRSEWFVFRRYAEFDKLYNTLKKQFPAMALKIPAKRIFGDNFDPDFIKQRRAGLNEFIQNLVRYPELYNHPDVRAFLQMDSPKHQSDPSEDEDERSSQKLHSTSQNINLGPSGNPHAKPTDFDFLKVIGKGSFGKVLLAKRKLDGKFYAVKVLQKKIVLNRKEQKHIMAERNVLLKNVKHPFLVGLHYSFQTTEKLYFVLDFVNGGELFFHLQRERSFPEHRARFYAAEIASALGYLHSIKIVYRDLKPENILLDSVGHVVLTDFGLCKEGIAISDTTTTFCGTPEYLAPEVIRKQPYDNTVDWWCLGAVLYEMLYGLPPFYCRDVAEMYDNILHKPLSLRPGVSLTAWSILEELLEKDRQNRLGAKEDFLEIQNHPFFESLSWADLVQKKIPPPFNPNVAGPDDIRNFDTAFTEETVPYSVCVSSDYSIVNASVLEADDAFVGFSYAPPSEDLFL", "assay": "Inhibition of wild-type human partial length SGK3 (M119 to L496 residues) expressed in mammalian expression system assessed as residual activity at 1 uM by Kinomescan method relative to control"}, "[20]": {"assay": "Permeability ratio across apical side to basolateral side in MDCK2 cells transfected with Bacmam virus containing human BCRP at 3 uM after 90 mins in presence or absence of GF120918 by transwell assay", "assay_type": "ADME, cell-based, Canis lupus familiaris", "conditions": "dog, mdck-ii, 1.5 h"}, "[21]": {"molecular_target": "Activin receptor type-1B (Homo sapiens) (UniProt P36896)", "assay": "Inhibition of wild-type human ACVR1B (S187 to I505 residues) expressed in bacterial expression system assessed as residual activity at 1 uM by Kinomescan method relative to control"}, "[22]": {"molecular_target": "Tyrosine-protein kinase JAK3 (Homo sapiens) (UniProt P52333)", "assay": "Inhibition of wild type human partial length JAK3 (I781 to S1124 residues) expressed in mammalian expression system assessed as residual activity at 1 uM by Kinomescan method relative to control"}, "[23]": {"molecular_target": "Ephrin type-A receptor 4 (Homo sapiens) (UniProt P54764)", "assay": "Inhibition of wild-type human partial length EPHA4 (T601 to R897 residues) expressed in bacterial expression system assessed as residual activity at 1 uM by Kinomescan method relative to control"}, "[24]": {"molecular_target": "G protein-coupled receptor kinase 4 (Homo sapiens) (UniProt P32298)", "sequence (P32298 whole entry, looked up, the tested form may be a part)": "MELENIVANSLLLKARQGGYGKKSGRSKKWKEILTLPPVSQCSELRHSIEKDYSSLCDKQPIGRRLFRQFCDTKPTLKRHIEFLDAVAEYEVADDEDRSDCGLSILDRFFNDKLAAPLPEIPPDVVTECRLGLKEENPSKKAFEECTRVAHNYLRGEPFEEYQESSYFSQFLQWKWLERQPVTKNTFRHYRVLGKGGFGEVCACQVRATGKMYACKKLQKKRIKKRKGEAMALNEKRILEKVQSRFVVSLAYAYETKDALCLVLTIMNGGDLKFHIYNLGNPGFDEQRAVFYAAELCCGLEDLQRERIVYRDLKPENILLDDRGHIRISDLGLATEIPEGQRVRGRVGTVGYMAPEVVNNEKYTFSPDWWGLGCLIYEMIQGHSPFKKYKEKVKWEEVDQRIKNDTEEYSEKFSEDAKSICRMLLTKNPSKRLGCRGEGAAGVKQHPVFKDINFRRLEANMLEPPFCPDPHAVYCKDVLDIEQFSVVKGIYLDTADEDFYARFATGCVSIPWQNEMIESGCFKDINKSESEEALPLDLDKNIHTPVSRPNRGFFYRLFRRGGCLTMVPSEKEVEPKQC", "assay": "Inhibition of wild type human full length GRK4 (M1 to C578 residues) expressed in bacterial expression system assessed as residual activity at 1 uM by Kinomescan method relative to control"}, "[25]": {"molecular_target": "Serine/threonine-protein kinase D3 (Homo sapiens) (UniProt O94806)", "sequence (O94806 whole entry, the tested form may be a part)": "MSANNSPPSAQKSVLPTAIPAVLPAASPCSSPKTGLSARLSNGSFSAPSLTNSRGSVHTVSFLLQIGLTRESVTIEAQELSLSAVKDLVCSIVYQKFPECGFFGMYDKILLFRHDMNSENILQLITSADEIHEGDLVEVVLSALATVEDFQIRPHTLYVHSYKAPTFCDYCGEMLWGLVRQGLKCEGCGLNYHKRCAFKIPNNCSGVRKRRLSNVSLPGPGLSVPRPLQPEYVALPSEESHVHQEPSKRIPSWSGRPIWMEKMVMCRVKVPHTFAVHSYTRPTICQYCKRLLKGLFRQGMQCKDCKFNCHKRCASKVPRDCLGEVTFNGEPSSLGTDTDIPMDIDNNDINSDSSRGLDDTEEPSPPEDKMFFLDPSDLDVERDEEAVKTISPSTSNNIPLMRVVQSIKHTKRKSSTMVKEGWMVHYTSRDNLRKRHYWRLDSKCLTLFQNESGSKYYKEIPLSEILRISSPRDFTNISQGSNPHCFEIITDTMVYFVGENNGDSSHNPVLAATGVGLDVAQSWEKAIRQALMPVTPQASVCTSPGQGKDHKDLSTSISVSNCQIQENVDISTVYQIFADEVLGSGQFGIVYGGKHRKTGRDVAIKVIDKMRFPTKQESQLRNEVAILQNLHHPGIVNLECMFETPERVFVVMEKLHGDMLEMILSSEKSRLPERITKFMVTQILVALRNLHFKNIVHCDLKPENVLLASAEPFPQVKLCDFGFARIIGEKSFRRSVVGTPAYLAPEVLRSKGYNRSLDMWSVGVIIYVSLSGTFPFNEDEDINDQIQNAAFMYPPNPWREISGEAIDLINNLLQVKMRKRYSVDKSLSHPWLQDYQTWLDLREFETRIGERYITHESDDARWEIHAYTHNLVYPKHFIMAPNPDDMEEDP", "assay": "Inhibition of wild-type human partial length PRKD3 (S543 to E863 residues) expressed in bacterial expression system assessed as residual activity at 1 uM by Kinomescan method relative to control"}, "[26]": {"molecular_target": "Nuclear receptor subfamily 1 group I member 2 (Homo sapiens, UniProt O75469)", "assay": "Inhibition of human PXR"}, "[27]": {"molecular_target": "Mitogen-activated protein kinase 12 (Homo sapiens) (UniProt P53778)", "assay": "Inhibition of wild-type human full length p38-gamma (M1 to L367 residues) expressed in mammalian expression system assessed as residual activity at 1 uM by Kinomescan method relative to control"}, "[28]": {"molecular_target": "Vascular endothelial growth factor receptor 1 (Homo sapiens) (UniProt P17948)", "sequence (P17948 whole entry, the tested form may be a part)": "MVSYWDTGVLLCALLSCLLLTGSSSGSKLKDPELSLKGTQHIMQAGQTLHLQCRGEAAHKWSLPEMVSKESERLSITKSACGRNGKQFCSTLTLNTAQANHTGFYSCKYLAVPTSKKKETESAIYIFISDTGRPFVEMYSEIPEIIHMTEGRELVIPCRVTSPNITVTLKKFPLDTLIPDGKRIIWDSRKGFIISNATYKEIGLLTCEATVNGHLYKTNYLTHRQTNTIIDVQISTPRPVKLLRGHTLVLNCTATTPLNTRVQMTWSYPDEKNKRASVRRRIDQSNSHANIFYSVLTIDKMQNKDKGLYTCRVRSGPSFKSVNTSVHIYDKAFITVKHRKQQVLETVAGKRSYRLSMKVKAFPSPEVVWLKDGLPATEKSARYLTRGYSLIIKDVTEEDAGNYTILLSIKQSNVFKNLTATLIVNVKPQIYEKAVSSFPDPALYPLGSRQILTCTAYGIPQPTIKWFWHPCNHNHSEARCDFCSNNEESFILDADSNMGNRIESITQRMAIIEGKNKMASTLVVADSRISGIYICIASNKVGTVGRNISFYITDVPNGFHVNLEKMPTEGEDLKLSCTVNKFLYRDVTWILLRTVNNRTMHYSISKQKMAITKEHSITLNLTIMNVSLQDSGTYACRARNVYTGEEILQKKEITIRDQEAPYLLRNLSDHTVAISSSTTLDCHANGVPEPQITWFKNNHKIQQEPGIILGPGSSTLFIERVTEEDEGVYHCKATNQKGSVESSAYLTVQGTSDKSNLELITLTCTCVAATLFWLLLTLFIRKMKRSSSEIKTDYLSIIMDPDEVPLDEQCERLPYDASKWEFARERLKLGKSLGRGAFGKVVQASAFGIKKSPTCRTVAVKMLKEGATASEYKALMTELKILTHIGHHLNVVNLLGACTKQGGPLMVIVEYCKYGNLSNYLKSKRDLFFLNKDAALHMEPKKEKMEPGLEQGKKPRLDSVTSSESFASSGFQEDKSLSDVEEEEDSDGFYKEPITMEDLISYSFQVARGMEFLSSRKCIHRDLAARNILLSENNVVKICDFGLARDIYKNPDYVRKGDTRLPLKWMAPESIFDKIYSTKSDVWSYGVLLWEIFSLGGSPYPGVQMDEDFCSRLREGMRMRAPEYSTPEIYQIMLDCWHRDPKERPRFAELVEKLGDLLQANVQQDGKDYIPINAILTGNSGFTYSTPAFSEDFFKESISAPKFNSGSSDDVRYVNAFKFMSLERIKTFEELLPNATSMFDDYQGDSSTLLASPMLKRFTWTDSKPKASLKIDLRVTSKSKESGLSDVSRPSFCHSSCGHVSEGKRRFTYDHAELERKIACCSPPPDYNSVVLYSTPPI", "assay": "Inhibition of wild-type human partial length FLT1 (R781 to F1239 residues) expressed in bacterial expression system assessed as residual activity at 1 uM by Kinomescan method relative to control"}}, "note": "pEC50, pIC50: −log10 of the molar value.", "data": [{"smiles": "CCOc1nc(Nc2ccc(C(=O)N3CCOCC3)cc2OC)nc2[nH]ccc12", "values": [{"measurement": "Activity", "setting": "[1]", "value": 99.9, "unit": "%"}, {"measurement": "Activity", "setting": "[2]", "value": 89.4, "unit": "%"}, {"measurement": "Activity", "setting": "[3]", "value": 104, "unit": "%"}, {"measurement": "Activity", "setting": "[4]", "value": 101, "unit": "%"}, {"measurement": "Activity", "setting": "[5]", "value": 101, "unit": "%"}, {"measurement": "Kp", "setting": "[6]", "value": 0.24}, {"measurement": "Activity", "setting": "[7]", "value": 82, "unit": "%"}, {"measurement": "Activity", "setting": "[8]", "value": 97.3, "unit": "%"}, {"measurement": "pIC50", "setting": "[9]", "value": 4.90}, {"measurement": "Activity", "setting": "[10]", "value": 99, "unit": "%"}, {"measurement": "Activity", "setting": "[11]", "value": 40.5, "unit": "%"}, {"measurement": "Activity", "setting": "[12]", "value": 134, "unit": "%"}, {"measurement": "Activity", "setting": "[13]", "value": 80.3, "unit": "%"}, {"measurement": "Activity", "setting": "[14]", "value": 101, "unit": "%"}, {"measurement": "Activity", "setting": "[15]", "value": 98.9, "unit": "%"}, {"measurement": "Activity", "setting": "[16]", "value": 91.3, "unit": "%"}, {"measurement": "Activity", "setting": "[17]", "value": 34.3, "unit": "%"}, {"measurement": "Activity", "setting": "[18]", "value": 101, "unit": "%"}, {"measurement": "Activity", "setting": "[19]", "value": 93.7, "unit": "%"}, {"measurement": "Ratio", "setting": "[20]", "value": 3.1}, {"measurement": "Activity", "setting": "[21]", "value": 84.5, "unit": "%"}, {"measurement": "Activity", "setting": "[22]", "value": 109, "unit": "%"}, {"measurement": "Activity", "setting": "[23]", "value": 107, "unit": "%"}, {"measurement": "Activity", "setting": "[24]", "value": 84.6, "unit": "%"}, {"measurement": "Activity", "setting": "[25]", "value": 63.7, "unit": "%"}, {"measurement": "pEC50", "setting": "[26]", "value": "< 4.30"}, {"measurement": "Activity", "setting": "[27]", "value": 103, "unit": "%"}, {"measurement": "Activity", "setting": "[28]", "value": 97.5, "unit": "%"}]}]}
